Data taken from patent US20090062150A1, “COMPOSITIONS AND METHODS FOR REGULATING INTRAMEMBRANE PROTEASES” (priority 2006, published 2009).

Experiments:
rhomboid protease = settings: qualitative statement; cited from earlier work
[1] = molecular target: T1, truncated GlpG transmembrane core domain (Escherichia coli, UniProt P09391); test: In vitro protease activity assay of GlpG core domain; format: biochemical, E. coli; settings: for inhibition of GlpG by other detergents: wide range of concentrations up to several times their CMCs, data not shown
T1 construct: The transmembrane core domain of GlpG (residues 87-276) was purified as described previously; made in house
Procedure: Structural characterization of E. coli rhomboid protease, GlpG, was carried out using an N-terminally truncated GlpG transmembrane core domain (residues 87-276). In vitro characterization of the enzymatic activity of the truncated GlpG was reconstituted to validate the use of the GlpG core domain for crystallographic studies was carried out using two separate assays. Proteolytic activity of purified truncated GlpG core domain on an artificial protein substrate in detergent micelles was analyzed at 37° C. […] Proteolytic activity of purified truncated GlpG core domain was also compared with full length GlpG using C100-Spitz-Flag as substrate.
Combinatorial library technology provides an efficient way of testing a potentially vast number of different substances for their ability to modulate the activity of a rhomboid protease. In some embodiments, test substances may be screened for their ability to interact with the rhomboid protease in an enzymatic assay. For example, in one such enzymatic assay an artificial protein substrate, such as, for example, a membrane: associated protein, such as, CED-4, or C100-Spitz-Flag may be contacted with a rhomboid protease, such as GlpG. Cleavage products may then be analyzed by, for example, sodium dodecyl-sulfate polyacrylamide gel electrophoresis (SDS-PAGE). A test substance may be added to such an enzymatic, assay as a separate component, and modulation of the enzymatic activity of the rhomboid protease may be apparent by a reduction or enhancement of the amount or type of cleavage product. The modulation of activity may be indicative of binding of the test substance to the rhomboid protease.
The proteolytic activity of GlpG was examined as described by Wu et al.

[2] = molecular target: T1, truncated GlpG transmembrane core domain; settings: qualitative statement, no data shown; cited from earlier work

T1 sequence (P09391 87-276): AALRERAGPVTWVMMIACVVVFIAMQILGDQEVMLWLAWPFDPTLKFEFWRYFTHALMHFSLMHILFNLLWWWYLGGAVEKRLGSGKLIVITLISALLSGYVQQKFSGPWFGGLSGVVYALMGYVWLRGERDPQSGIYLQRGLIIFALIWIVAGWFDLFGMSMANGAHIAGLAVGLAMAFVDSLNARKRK

Row | Structure (SMILES) | inhibition of rhomboid activity (rhomboid protease) | specificity for rhomboid (rhomboid protease) | inhibition of GlpG by other detergents [1] | other results
1 | Cc1ccc(S(=O)(=O)N[C@@H](Cc2ccccc2)C(=O)CCl)cc1 [TPCK] | inhibit rhomboid activity | lack specificity | – | –
2 | CCCCCCCCCCCC[N+](C)(C)[O-] [LDAO] | – | – | no inhibition | –
3 | CCCCCCCCCO[C@@H]1O[C@H](CO)[C@@H](O)[C@H](O)[C@H]1O [nonyl glucoside] | – | – | no inhibition | –
4 | O=c1oc(Cl)c(Cl)c2ccccc12 [DCI, Dichloroisocoumarin] | inhibit rhomboid activity | lack specificity | – | inhibition of GlpG [2]: relatively potent inhibition
5 | CCCCCCCCOCCOCCOCCOCCO [C8E4, tetraethyleneglycol monooctyl ether] | – | – | – | inhibition of enzymatic activity on artificial substrate ([1]; at concentrations above its critical micelle concentration (CMC), artificial substrate, FIG. 4A left panel): inhibit enzymatic activity; inhibition of proteolysis of C100-Spitz-Flag ([1]; substrate C100-Spitz-Flag, FIG. 4A right panel): inhibition is also observed
